The results in this text go back to article PMC6712804 (BMC Cancer, 2019).

“And” between values parts separate entries of the source, which are not always exact repeats. Equal entries are not always repeated.

For series [1], the system named is MYCN, MCL-1, PARP, LC3I, LC3II, BRD-4, bcl-2 and BAX gene expression in BE-2c cells. Description: RNAseq gene expression analysis. In kind it is cell-based. On the set-up: RNAseq expression value, MYCN gene / RNAseq expression value, MCL-1 gene / RNAseq expression value, LCII gene / RNAseq expression value, LCI gene / RNAseq expression value, BRD-4 gene / RNAseq expression value, Bcl-2 gene / RNAseq expression value, BAX gene: unit not given here. The settings on record: 18 h, TEM alone 1 μM. As for the experimental part: Total RNA was extracted using the RNeasy Micro Kit (Qiagen, Germantown, MD). Nano Drop was used to measure RNA concentration and purity and integrity was evaluated using Agilent Bioanalyzer System (Agilent Technologies, Santa Clara, CA). RNA sequencing and library preparation was performed using Maestro TruSeq Application (Perkin Elmer, Waltham, MA). Parameters used were optimized for 50 bp single-end reads with 20 million reads per sample. […] Gene expression analysis are reported for those pathways where protein analysis was performed (MYCN, MCL-1, PARP, LC3I, LC3II, BRD-4, bcl-2, and BAX).

For series [2] the following is noted: compared to untreated controls.
Procedure: NSG mice were injected subcutaneously with 5 × 10^5 BE2-c cells in a 50:50 PBS/Matrigel® solution. […] Bone marrow was collected at necropsy for a CFU-GM assay to assess bone marrow toxicity.
In series [3] the test system is BE2-c subcutaneous tumors. Description: Anti-tumor activity in BE2-c tumor bearing NSG mice. Type of series: in vivo. The note with it: follow up study, dosing three times per week. As for the experimental part:
A follow up study of the combination integrated control groups and modified dosing of MP1 plus TEM to three times per week at the doses described above. […] Tumor measurements were performed daily and treatments began on the first day the tumor achieved 2 mm^3 in size.

In series [4] the test system is OXPHOS (OCR) and glycolysis (ECAR) in BE-2c cells. Kind of series: Metabolic flux analysis and cell energy phenotype (XFp Seahorse). The note with it: 18 h, metformin 5 mM. In kind it is cell-based. As for the experimental part:
Six wells of an XFp culture plate were seeded with 15,000 BE-2c cells/well in 80 μL DMEM with 10% FBS. […] The XFp Cell Energy Phenotype assay utilizes oligomycin as an inhibitor of ATP synthase and FCCP which is a mitochondrial uncoupling reagent. Oligomycin inhibits mitochondrial ATP production leading to a compensatory increase in glycolysis to meet energy demands. FCCP depolarizes the mitochondrial membrane driving the oxygen consumption rates higher as mitochondria restore polarization. The results were graphed on a grid indicating degree of aerobic/glycolytic metabolism and energetic/quiescent phenotypes.

In the case of `CO[C@H]1C[C@@H]2CC[C@@H](C)[C@@](O)(O2)C(=O)C(=O)N2CCCC[C@H]2C(=O)O[C@H]([C@H](C)C[C@@H]2CC[C@@H](OC(=O)C(C)(CO)CO)[C@H](OC)C2)CC(=O)[C@H](C)/C=C(\C)[C@@H](O)[C@@H](OC)C(=O)[C@H](C)C[C@H](C)/C=C/C=C/C=C/1C` [TEM, temsirolimus], in series [1], the “Change (fold change treatment over control), BAX gene” value is −1.14; the “Change (fold change treatment over control), BRD-4 gene” value was −1.06; the “Change (fold change treatment over control), Bcl-2 gene” value amounted to 1.45; the “Change (fold change treatment over control), MCL-1 gene” value is recorded as −1.12. In series [1], the “Change (fold change treatment over control), MYCN gene” value was 1.0 and the “Change (fold change treatment over control), PARP1 gene” value is given as −1.2. Also, in series [1] (replicates #1-#3), the “RNAseq expression value, BAX gene” value was 42.7 and 37.3 and 40.6; the “RNAseq expression value, BRD-4 gene” value is 70.4 and 71.4 and 72.7; the “RNAseq expression value, Bcl-2 gene” value is 49.2 and 52.0 and 47.7; the “RNAseq expression value, LCI gene” value is 5.1 and 4.4 (2×). Besides, in series [1] (replicates #1-#3), the “RNAseq expression value, LCII gene” value is 92.7 and 92.5 and 89.7; the “RNAseq expression value, MCL-1 gene” value is 281 and 282 and 276; the “RNAseq expression value, MYCN gene” value is 2264 and 2140 and 2232; the “RNAseq expression value, PARP1 gene” value is 580 and 617 and 599. For the same compound, the “Bone marrow toxicity (CFU-GM assay)” value in series [2] is listed as “unaffected”. Moreover, the Complete responses result in series [3] is on record as “no complete responses”.
`CN(C)C(=N)N=C(N)N` [metformin]: the “Effect on OXPHOS and glycolysis” value in series [4] was “uncoupled OXPHOS metabolism without effects on glycolysis”.
